The results in this text go back to patent publication US8828985B2, “Carbamate and urea inhibitors of 11-beta-hydroxysteroid dehydrogenase 1” (Vitae Pharmaceuticals, Inc., priority 2008, dated 2014).

Experiment [1] deals with T1, human 11β-HSD1 (Homo sapiens, UniProt P28845). Put plainly: biochemical. The note with it: for IC50: Biological Test Example 2 IC50 Range, microsomes from CHO cells overexpressing human 11β-HSD1, SPA; for inhibition at 0.1 µM / inhibition at 0.111 µM: 1.5 h; for inhibition at 0.1 µM: read-out: Biological Test Example 2 Average % inhibition at 100 nm, at 100 nm.
T1 sequence (P28845 whole entry): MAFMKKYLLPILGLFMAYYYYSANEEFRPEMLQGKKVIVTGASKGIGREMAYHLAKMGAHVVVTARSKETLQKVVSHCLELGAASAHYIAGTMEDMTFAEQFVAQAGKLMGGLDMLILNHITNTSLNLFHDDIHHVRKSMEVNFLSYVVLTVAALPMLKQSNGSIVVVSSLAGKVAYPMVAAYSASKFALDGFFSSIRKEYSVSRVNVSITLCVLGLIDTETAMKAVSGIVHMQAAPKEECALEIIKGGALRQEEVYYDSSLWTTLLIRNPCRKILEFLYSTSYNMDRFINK
Description: (§1) All reactions are carried out at room temperature in 96 well clear flexible PET Microbeta plates (PerkinElmer). […] The reaction is stopped by adding 50 μl of the SPA beads suspension containing 10 μM 18β-glycyrrhetinic acid, 5 mg/ml protein A coated YSi SPA beads (GE Healthcare) and 3.3 μg/ml of anti-cortisol antibody (East Coast Biologics) in Superblock buffer (Bio-Rad). The plates are then shaken for 120 minutes at room temperature, and the SPA signal corresponding to [^3H]cortisol is measured on a Microbeta plate reader.
The target in experiment [2] is T1, human 11β-HSD1. The note with it: for IC50: read-out: Biological Test Example 2 IC50 Range, microsomes from CHO cells overexpressing human 11β-HSD1, SPA.
Description: as §1
Setting [3] is: read-out: Biological Test Example 2 Average % inhibition at 111 nm, at 111 nm.

Read-outs that look alike come from different tables or passages of the source. Where only a bound is given, the exact number is not on record here.

What is called IC50 is the concentration that inhibits the measured activity by half. Compound `CC(C)(C)OC(=O)N1CCC2CN(C(=O)OC3C4CC5CC3CC(C(N)=O)(C5)C4)CC21` (single isomer, unassigned) [Example 23 Isomer 1, 1-tert-butyl 5-(cis-1-carbamoyl-4-adamantyl)hexahydropyrrolo[3,4-b]pyrrole-1,5-dicarboxylate] returned an IC50 on human 11β-HSD1 [1] greater than 0.1 µM. For the same compound, at human 11β-HSD1 [2], the “Biological Test Example 2 Average % inhibition at 100 nm” value stood at 35.4%.

At human 11β-HSD1 [1], `NC(=O)C12CC3CC(C1)C(OC(=O)N1CC[C@@H](Nc4ncccn4)C1)C(C3)C2` (single isomer, unassigned) [Example 62 Isomer 1] yielded an IC50 of less than 0.1 µM. Besides, on human 11β-HSD1 [2], the “Biological Test Example 2 Average % inhibition at 100 nm” value stood at 40.8%.

The compound `CC(C)(C)OC(=O)NC1(Cc2ccccc2)CCN(C(=O)OC2C3CC4CC2CC(C(N)=O)(C4)C3)C1` (single isomer, unassigned) [Example 29 Isomer 2, (trans-1-carbamoyl-4-adamantyl) 3-benzyl-3-(tert-butoxycarbonylamino)pyrrolidine-1-carboxylate] showed an IC50 on human 11β-HSD1 [1] of less than 0.1 µM. In addition, at human 11β-HSD1 [2], the “Biological Test Example 2 Average % inhibition at 100 nm” value was 90.8%.

With `CC(C)(C)OC(=O)NC1(Cc2ccccc2)CCN(C(=O)OC2C3CC4CC2CC(C(N)=O)(C4)C3)C1` (single isomer, unassigned) [Example 29 Isomer 1, (cis-1-carbamoyl-4-adamantyl) 3-benzyl-3-(tert-butoxycarbonylamino)pyrrolidine-1-carboxylate], the IC50 against human 11β-HSD1 [1] is greater than 0.1 µM. Also, the “Biological Test Example 2 Average % inhibition at 100 nm” value on human 11β-HSD1 [2] was found to be 41.2%.

The compound `CC(C)(C)OC(=O)NC1(Cc2ccccc2)CCN(C(=O)OC2C3CC4CC2CC(C(N)=O)(C4)C3)C1` (single isomer, unassigned) [Example 29 Isomer 2.1, (trans-1-carbamoyl-4-adamantyl) 3-benzyl-3-(tert-butoxycarbonylamino)pyrrolidine-1-carboxylate] registered an IC50 against human 11β-HSD1 [1] of less than 0.1 µM. Also, the “Biological Test Example 2 Average % inhibition at 100 nm” value at human 11β-HSD1 [2] turned out to be 96.9%.

Consider `CC(C)COC(=O)NC1CCN(C(=O)OC2C3CC4CC2CC(C(N)=O)(C4)C3)C1` (single isomer, unassigned) [Example 18 Isomer 1, (cis-1-carbamoyl-4-adamantyl) (3R-(isobutoxycarbonylamino)pyrrolidine-1-carboxylate)], for which the IC50 on human 11β-HSD1 [1] is greater than 0.1 µM. In addition, the “Biological Test Example 2 Average % inhibition at 100 nm” value at human 11β-HSD1 [2] was 22.6%.

As to `CC(C)(C)OC(=O)N1CCCC12CCN(C(=O)OC1C3CC4CC1CC(C(N)=O)(C4)C3)C2` (single isomer, unassigned) [Example 30 Isomer 1, 1-tert-butyl 7-(cis-1-carbamoyl-4-adamantyl) 1,7-diazaspiro[4.4]nonane-1,7-dicarboxylate], the IC50 at human 11β-HSD1 [1] was greater than 0.1 µM. Also, the “Biological Test Example 2 Average % inhibition at 100 nm” value at human 11β-HSD1 [2] is 15.9%.

On to `CC1(NC(=O)OC(C)(C)C)CCN(C(=O)OC2C3CC4CC2CC(C(N)=O)(C4)C3)C1` (single isomer, unassigned) [Example 22 Isomer 2, (trans-1-carbamoyl-4-adamantyl) 3-(tert-butoxycarbonylamino)-3-methylpyrrolidine-1-carboxylate], for which the IC50 against human 11β-HSD1 [1] is less than 0.1 µM. Further, the “Biological Test Example 2 Average % inhibition at 100 nm” value at human 11β-HSD1 [2] is given as 95.5%.

For `N#Cc1ccc(N[C@@H]2CCN(C(=O)NC3CC4CCC(C3)N4C(N)=O)C2)nc1` (single isomer, unassigned) [Example 104 Isomer 2], at human 11β-HSD1 [2], the “Biological Test Example 2 Average % inhibition at 111 nm” value is on record as −6.1% and the half-inhibitory concentration (IC50) is greater than 1 µM.

On to `N#Cc1ccc(N[C@@H]2CCN(C(=O)NC3CC4CCC(C3)N4C(N)=O)C2)nc1` (single isomer, unassigned) [Example 104 Isomer 1], for which, on human 11β-HSD1 [2], the “Biological Test Example 2 Average % inhibition at 111 nm” value is on record as −6.2% and the IC50 is greater than 1 µM.

As for `N#Cc1ccc(N[C@@H]2CCN(C(=O)OC3C4CC5CC3CC(C(=O)NC3CC3)(C5)C4)C2)nc1` (single isomer, unassigned) [Example 118 Isomer 2], on human 11β-HSD1 [2], the “Biological Test Example 2 Average % inhibition at 100 nm” value is recorded as 7.15% and the IC50 was greater than 0.1 µM.

Regarding `NC(=O)C12CC3CC(C1)C(OC(=O)N1CC[C@@H](Nc4ncccn4)C1)C(C3)C2` (single isomer, unassigned) [Example 62 Isomer 2], at human 11β-HSD1 [2], the “Biological Test Example 2 Average % inhibition at 100 nm” value was determined as 78.7% and the IC50 was less than 0.1 µM.

Broadly, the inhibition is the relative decrease from the control value, in per cent. Take `CN(c1ccc(C(F)(F)F)cn1)C1CCN(C(=O)O[C@H]2C3CC4CC2C[C@](C(N)=O)(C4)C3)C1` (stereo partly drawn) [Example 43, (trans-1-carbamoyl-4-adamantyl) 3-(methyl(5-(trifluoromethyl)pyridin-2-yl)amino)pyrrolidine-1-carboxylate]: on human 11β-HSD1 [1], the inhibition at 0.1 µM came to 102% and the IC50 was less than 0.1 µM.

As to `N#Cc1ccc(N[C@@H]2CCN(C(=O)O[C@H]3C4CC5CC3C[C@](C(N)=O)(C5)C4)C2)nn1` [Example 116, (R)-(trans-1-carbamoyl-4-adamantyl) 3-(6-cyanopyridazin-3-ylamino)pyrrolidine-1-carboxylate], at human 11β-HSD1 [1], the inhibition at 0.1 µM was determined as 71.4% and the IC50 was less than 0.1 µM.

For the compound `N#Cc1ccc(N2CCC3CN(C(=O)O[C@H]4C5CC6CC4C[C@](C(N)=O)(C6)C5)CC32)nc1` (stereo partly drawn) [Example 76, (trans-1-carbamoyl-4-adamantyl) 1-(5-cyanopyridin-2-yl)hexahydropyrrolo[3,4-b]pyrrole-5(1H)-carboxylate], at human 11β-HSD1 [1], the inhibition at 0.1 µM was 97.9% and the IC50 was less than 0.1 µM. Also, the inhibition at 0.111 µM on human 11β-HSD1 [1] (setting [3]) amounted to 101%.

As to `Cc1nc(N[C@@H]2CCN(C(=O)O[C@H]3C4CC5CC3C[C@](O)(C5)C4)C2)ccc1C#N` [Example 84, (R)-(trans-1-hydroxy-4-adamantyl) 3-(5-cyano-6-methylpyridin-2-ylamino)pyrrolidine-1-carboxylate], at human 11β-HSD1 [1], the inhibition at 0.1 µM worked out at 71.6% and the IC50 is less than 0.1 µM.

Take `N#Cc1cnc(N[C@@H]2CCN(C(=O)O[C@H]3C4CC5CC3C[C@](O)(C5)C4)C2)c(Cl)c1` [Example 87, (R)-(trans-1-hydroxy-4-adamantyl) 3-(3-chloro-5-cyanopyridin-2-ylamino)pyrrolidine-1-carboxylate]: on human 11β-HSD1 [1], the inhibition at 0.1 µM is 100% and the IC50 is less than 0.1 µM.

As to `N#Cc1ccc2nc(N[C@@H]3CCN(C(=O)O[C@H]4C5CC6CC4C[C@](O)(C6)C5)C3)sc2c1` [Example 94, (R)-(trans-1-hydroxy-4-adamantyl) 3-(6-cyanobenzo[d]thiazol-2-ylamino)pyrrolidine-1-carboxylate], on human 11β-HSD1 [1], the inhibition at 0.1 µM amounted to 90.8% and the IC50 is less than 0.1 µM.

As for `CC(C)(C)OC(=O)N1CCCC12CCN(C(=O)NC1C3CC4CC(C3)CC1C4)C2` (stereo not drawn) [Example 58, tert-butyl 7-(2-adamantylcarbamoyl)-1,7-diazaspiro[4.4]nonane-1-carboxylate], the inhibition at 0.111 µM at human 11β-HSD1 [1] (setting [3]) was 94.3%. This compound also returned an IC50 against human 11β-HSD1 [1] of less than 0.1 µM.

`CN(C(=O)c1cccnc1N[C@@H]1CCN(C(=O)O[C@H]2C3CC4CC2C[C@](O)(C4)C3)C1)C(C)(C)C` [Example 100, (trans-1-hydroxy-4-adamantyl) 3-(3-(tert-butyl(methyl)carbamoyl)pyridin-2-ylamino)pyrrolidine-1-carboxylate]: on human 11β-HSD1 [1], the inhibition at 0.1 µM worked out at 46.8% and the IC50 is less than 0.1 µM.

On to `O=C(O[C@H]1C2CC3CC1C[C@](O)(C3)C2)N1CC[C@@H](Nc2cnc3cc(Cl)ccc3n2)C1` [Example 96, (R)-(trans-1-hydroxy-4-adamantyl) 3-(6-chloroquinoxalin-2-ylamino)pyrrolidine-1-carboxylate], for which, at human 11β-HSD1 [1], the inhibition at 0.1 µM came out at 101% and the IC50 was less than 0.1 µM.

As for `NC(=O)C12CC3CC(C1)C(OC(=O)N1CC[C@@H](Nc4ccc(F)cn4)C1)C(C3)C2` (stereo partly drawn) [Example 115], on human 11β-HSD1 [1], the inhibition at 0.1 µM came out at 95.2% and the IC50 was less than 0.1 µM.

As to `CNC(=O)c1cnc(N[C@@H]2CCN(C(=O)O[C@H]3C4CC5CC3C[C@](O)(C5)C4)C2)nc1` [Example 110, (R)-(trans-1-hydroxy-4-adamantyl) 3-(5-(methylcarbamoyl)pyrimidin-2-ylamino)pyrrolidine-1-carboxylate], at human 11β-HSD1 [1], the inhibition at 0.1 µM came out at 32.2% and the IC50 was greater than 0.1 µM.

Turning to `CN(C)C(=O)c1cccnc1N[C@@H]1CCN(C(=O)O[C@H]2C3CC4CC2C[C@](O)(C4)C3)C1` [Example 89, (R)-(trans-1-hydroxy-4-adamantyl) 3-(3-(dimethylcarbamoyl)pyridin-2-ylamino)pyrrolidine-1-carboxylate], on human 11β-HSD1 [1], the inhibition at 0.1 µM was 39.1% and the IC50 was greater than 0.1 µM.

As for `CCOC(=O)C1(Nc2ccccc2)CCN(C(=O)NC2C3CC4CC(C3)CC2C4)CC1` (stereo not drawn) [Example 59, Ethyl 1-(2-adamantylcarbamoyl)-4-(phenylamino)piperidine-4-carboxylate], the inhibition at 0.111 µM at human 11β-HSD1 [1] (read-out: Biological Test Example 2 Average % inhibition at 111 nm) is 47.5%. Further, the IC50 at human 11β-HSD1 [1] was in the range of 0.1 to 1 µM.

On to `CC(C)(C)NC(=O)c1cc(Cl)cnc1N[C@@H]1CCN(C(=O)O[C@H]2C3CC4CC2C[C@](O)(C4)C3)C1` [Example 102, (R)-(trans-1-hydroxy-4-adamantyl) 3-(3-(tert-butylcarbamoyl)-5-chloropyridin-2-ylamino)pyrrolidine-1-carboxylate], for which, on human 11β-HSD1 [1], the inhibition at 0.1 µM is 78.7% and the IC50 was less than 0.1 µM.

As to `Cc1nccc2nc(N[C@@H]3CCN(C(=O)O[C@H]4C5CC6CC4C[C@](O)(C6)C5)C3)ccc12` [Example 88, (R)-(trans-1-hydroxy-4-adamantyl) 3-(5-methyl-1,6-naphthyridin-2-ylamino)pyrrolidine-1-carboxylate], at human 11β-HSD1 [1], the inhibition at 0.1 µM stood at 69.4% and the IC50 is less than 0.1 µM.

For `CC(C)OC(=O)N[C@@H]1CCN(C(=O)NC2C3CC4CC(C3)CC2C4)C1` (stereo partly drawn) [Example 49, (R)-isopropyl 1-((2-adamantyl)carbamoyl)pyrrolidin-3-ylcarbamate], the inhibition at 0.111 µM on human 11β-HSD1 [1] (setting [3]) stood at 74.6%. This compound gave an IC50 against human 11β-HSD1 [1] of less than 0.1 µM.
